Data set [1] in a line: Three time point assay for plasma, brain and testes distribution after oral dosing. The class given is in vivo, rat. The note with it: for concentration at 0.5 h / Kp at 0.5 h / concentration at 2 h / Kp at 2 h / concentration at 7 h / Kp at 7 h: male, SD, 10 mg/kg; for concentration at 0.5 h / Kp at 0.5 h / concentration at 2 h / Kp at 2 h / concentration at 7 h / Kp at 7 h / Brain concentration / Kp brain/plasma / Kp testes/plasma / Plasma concentration / Testes concentration: rat, oral dosing; for concentration at 0.5 h / Kp at 0.5 h: time point 0.5 h; for concentration at 7 h / Kp at 7 h: time point 7 h. How it is done: Exemplary compounds were tested for distribution in plasma, brain and testes tissue following oral dosing of the compounds in rats. Procedures and results are described below.
Male SD Rats were group-housed (up to four animals/sex/cage) in polysulfone cages with certified aspen wood bedding during acclimation and study period.
Certified rodent diet and water was provided to all animals ad libitum, unless fasting for study procedures.
Appropriate amount of test article was accurately weighed and mixed with an appropriate volume of vehicle to get a clear solution or a uniform suspension; vortexing or sonication in water bath may also be need. Animals were dosed within four hours after the formulation is prepared.
For PO dosing, the dose formulation was administered via oral gavage following facility SOPs. The dose volume was determined by the animals' body weight collected on the morning of dosing day. The dose was 10 mg/kg.
Each blood collection (about 1 mL per time point at one or more of 0.5 h, 2 h, 3 h, 5.3 h, and 7 h) was performed from jugular vein or other suitable site of each animal into pre-chilled commercial EDTA-K2 tubes and placed on wet ice until centrifugation.
Blood samples were processed for plasma by centrifugation at approximately 4° C., 3,200 g for 10 min. Plasma was collected respectively and transferred into pre-labeled 96 well plate or polypropylene tubes, quick frozen over dry ice and kept at −60° C. or lower until LC-MS/MS analysis.
Rat brain was perfused with PBS to remove blood before harvest.
After perfusion, brain and testis were homogenized using homogenizing buffer (15 mM PBS (pH7.4):MeOH=2:1) at the ratio of 1:9 (1 g tissue with 9 mL buffer, the dilution ratio is 10). The brain homogenate was kept at −60° C. or lower until LC-MS/MS analysis. General sample processing procedure (brain homogenate & testis homogenate) using 96-well plate: • 1). An aliquot of 40 μL unknown sample, calibration standard, quality control and dilution quality control (if have), single blank, and double blank sample was added to the 96-well plate respectively; • 2). Each sample (except the double blank) was quenched with 400 μL of IS1 respectively (double blank sample was quenched with 400 μL of I), and then the mixture was vortex-mixed for 10 min at 800 rpm and centrifuged for 15 min at 3220×g, 4° C.; • 3). An aliquot of 50 μL supernatant was transferred to another clean 96-well plate and centrifuged for 5 min at 3220×g, 4° C., then the supernatant was directly injected for LC-MS/MS analysis.
• 1. A LC-MS/MS method for the quantitative determination of test compound in biological matrix was developed under Non-GLP compliance. • 2. A calibration curve with at least 6 non-zero calibration standards was applied for the method including LLOQ. • 3. A set of QCs consisting of low, middle, and high concentrations were applied for the method. • 4. N in 1 cassette LC-MS/MS method was developed for samples coming from different studies and the interference among all cassette analytes was evaluated during the method development. • 5. Cassette administration assay was performed if the mass difference (Δmass) among different analytes was more than 4 Da. In this case, interference evaluation was not necessary.
• 1. If sample number within a batch was ≤12, at least one set of standard curve separated with two parts through begin and end of the sequence, was included in the run, and QCs were not required. The recommended injection order was C8, C6, C4, C2, study samples, C7, C5, C3, C1. • 2. If sample number within a batch was >12, one standard curve and two sets of QCs with low, middle and high concentrations were applied for bioanalysis. Meanwhile, QCs number should be more than 5% of study sample number. • 3. Samples with the same types of matrix in different studies were quantified in one analysis run by using the developed N in 1 cassette LC-MS/MS method. • 4. […]

Another data set has as its target T1, MDR1 (MDR1-MDCKII cells) (Homo sapiens, UniProt P08183).
T1 construct: host or cells: MDCKII (canine kidney) cells
The data set can be described thus: Permeability in MDR1-MDCKII cells. The class given is in vitro ADME. As to conditions: for MDCKII-MDR1: Papp A-B: MDCKII-MDR1, apical to basolateral. How it is done: Exemplary compounds were tested for cell permeability in Caco-2, MDCKII-MDR1 and MDCKII-BCRP cell lines with efflux transporter engagement inferred from the efflux ratios determined. Procedures and results are described below. […] This feature of certain compounds is in part due to efflux transporter engagement. See, for instance, exemplary such compounds included in data tables below.
MDR1-MDCKII cells (obtained from Piet Borst at the Netherlands Cancer Institute) were seeded onto […] membranes (PET) in 96-well insert systems at 2.5×10^5 cells/mL until to 4-7 days for confluent cell monolayer formation.
Test compounds were diluted with the transport buffer (HBSS with 10 mM Hepes, pH7.4) from DMSO stock solution to a concentration of 2.00 μM (DMSO<1%) and applied to the apical or basolateral side of the cell monolayer. Permeation of the test compounds from A to B direction or B to A direction was determined in duplicate. Digoxin was tested at 10.0 μM from A to B direction or B to A direction as well, while nadolol and metoprolol were tested at […] in A to B direction in duplicate. The plate was incubated for 2.5 hours in CO2 incubator at 37±1° C., with 5% CO2 at saturated humidity without shaking. In addition, the efflux ratio of each compound was also determined. Test and reference compounds were quantified by LC-MS/MS analysis based on the peak area ratio of analyte/IS.
After transport assay, Lucifer yellow rejection assay are applied to determine the cell monolayer integrity. Buffers are removed from both apical and basolateral chambers, followed by the addition of 75 μL of 100 μM lucifer yellow in transport buffer and 250 μL transport buffer in apical and basolateral chambers, respectively. The plate is incubated for 30 minutes at 37° C. with 5% CO2 and saturated humidity without shaking. After 30 minutes incubation, 20 μL of lucifer yellow samples are taken from the apical sides, followed by the addition of 60 μL of Transport Buffer. And then 80 μL of lucifer yellow samples are taken from the basolateral sides. The relative fluorescence unit (RFU) of lucifer yellow is measured at 425/528 nm (excitation/emission) with an Envision plate reader.
The apparent permeability coefficient Papp (cm/s) was calculated using the equation: […]
Where dCr/dt is the cumulative concentration of compound in the receiver chamber as a function of time (μM/s); Vr is the solution volume in the receiver chamber (0.075 mL on the apical side, 0.25 mL on the basolateral side); A is the surface area for the transport, i.e. 0.0804 cm^2 for the area of the monolayer; C0 is the initial concentration in the donor chamber (μM). The efflux ratio was calculated using the equation: […]
Where Vd is the volume in the donor chambers (0.075 mL on the apical side, 0.25 mL on the basolateral side); Cd and Cr are the final concentrations of transport compound in donor and receiver chambers, respectively.

The mark [2] stands for this setting: brain, read-out: Brain concentration.
Where [3] appears, read: brain, read-out: Kp brain/plasma.
Where [4] appears, read: plasma, read-out: Plasma concentration.
[5] abbreviates: testes, read-out: Kp testes/plasma.
The mark [6] stands for this setting: testes, read-out: Testes concentration.

The record followed here is patent US20240254119A1 (THIRD HARMONIC BIO, INC., priority 2022, published 2024).

The structures appear in SMILES notation. Like-named read-outs stand apart in the source and are kept apart here.

T1 sequence (P08183 whole entry): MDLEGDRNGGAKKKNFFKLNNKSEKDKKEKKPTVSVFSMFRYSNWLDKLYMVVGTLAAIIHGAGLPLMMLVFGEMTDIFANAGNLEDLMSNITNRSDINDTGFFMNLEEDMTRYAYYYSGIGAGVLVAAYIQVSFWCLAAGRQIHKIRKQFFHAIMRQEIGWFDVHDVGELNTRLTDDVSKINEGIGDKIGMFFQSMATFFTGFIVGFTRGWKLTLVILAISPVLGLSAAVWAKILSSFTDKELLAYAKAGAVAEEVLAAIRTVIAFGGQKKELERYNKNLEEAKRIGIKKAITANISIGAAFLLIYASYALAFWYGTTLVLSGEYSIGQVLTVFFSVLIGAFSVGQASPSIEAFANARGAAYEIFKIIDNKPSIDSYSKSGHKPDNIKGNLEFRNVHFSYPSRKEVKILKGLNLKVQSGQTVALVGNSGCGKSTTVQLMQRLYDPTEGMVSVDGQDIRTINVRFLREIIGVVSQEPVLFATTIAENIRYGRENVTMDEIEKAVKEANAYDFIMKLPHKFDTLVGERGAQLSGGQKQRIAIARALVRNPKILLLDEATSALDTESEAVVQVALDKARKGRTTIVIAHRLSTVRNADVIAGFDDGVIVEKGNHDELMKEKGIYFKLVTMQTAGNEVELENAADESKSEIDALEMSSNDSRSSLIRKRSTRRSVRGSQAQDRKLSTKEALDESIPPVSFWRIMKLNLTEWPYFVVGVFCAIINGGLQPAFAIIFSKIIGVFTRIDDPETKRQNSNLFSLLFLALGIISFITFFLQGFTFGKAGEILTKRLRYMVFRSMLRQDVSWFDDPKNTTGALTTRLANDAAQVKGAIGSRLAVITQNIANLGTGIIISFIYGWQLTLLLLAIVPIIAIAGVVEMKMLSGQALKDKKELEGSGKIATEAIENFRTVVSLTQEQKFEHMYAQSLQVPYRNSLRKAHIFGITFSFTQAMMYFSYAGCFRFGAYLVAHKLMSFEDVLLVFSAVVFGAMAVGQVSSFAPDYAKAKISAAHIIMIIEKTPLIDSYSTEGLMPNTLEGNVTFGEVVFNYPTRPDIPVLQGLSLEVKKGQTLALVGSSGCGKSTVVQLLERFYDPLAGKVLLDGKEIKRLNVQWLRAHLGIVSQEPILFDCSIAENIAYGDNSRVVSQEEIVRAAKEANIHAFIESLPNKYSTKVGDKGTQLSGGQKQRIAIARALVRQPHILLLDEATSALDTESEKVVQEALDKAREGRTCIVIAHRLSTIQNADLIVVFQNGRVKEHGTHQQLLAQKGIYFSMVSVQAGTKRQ

With `Cc1ccc(-c2noc([C@H]3C[C@@H]3F)n2)cc1NC(=O)c1cnc2cc(COCC(C)(C)O)ccn12` [Compound I-71, N-[5-[5-[(1R,2S)-2-fluorocyclopropyl]-1,2,4-oxadiazol-3-yl]-2-methyl-phenyl]-7-[(2-hydroxy-2-methyl-propoxy)methyl]imidazo[1,2-a]pyridine-3-carboxamide], the values for the concentration at 0.5 h in data set [1] (setting [2]), in data set [1] (setting [4]) and in data set [1] (setting [6]) were 91.8 ng/g, 1810 ng/mL and 166 ng/g, respectively. Further, the Kp at 0.5 h in data set [1] (setting [3]) was determined as 0.05; in data set [1] (setting [5]), 0.09. Also, the concentration at 2 h was 169 ng/g in data set [1] (brain, time point 2 h, read-out: Brain concentration); 3420 ng/mL in data set [1] (plasma, time point 2 h, read-out: Plasma concentration); 653 ng/g in data set [1] (testes, time point 2 h, read-out: Testes concentration). For the same compound, the Kp at 2 h was determined as 0.05 in data set [1] (brain, time point 2 h, read-out: Kp brain/plasma) and 0.19 in data set [1] (testes, time point 2 h, read-out: Kp testes/plasma). Further, the figures for the concentration at 7 h in data set [1] (setting [2]), in data set [1] (setting [4]) and in data set [1] (setting [6]) were 126 ng/g, 4110 ng/mL and 739 ng/g, respectively. The Kp at 7 h turned out to be 0.03 in data set [1] (setting [3]) and 0.18 in data set [1] (setting [5]). The “brain penetration as indicated by Kp (Cbrain/Cplasma)” value in data set [1] (result in words) is “do not significantly penetrate the brain or minimally penetrate the brain”.

As to `COC(=O)N1CC(c2nc(-c3ccc(C)c(NC(=O)c4cnn5ccc(Br)cc45)c3)no2)C1` [Compound I-280], at MDR1 (MDR1-MDCKII cells), the “MDCKII-MDR1: Efflux Ratio” value was found to be 1.19 and the “MDCKII-MDR1: Papp A-B” value is on record as 11.8 10^−6 cm/s.

Regarding `Cc1ccc(-c2noc(C(C)O)n2)cc1NC(=O)c1cnc2ccccn12` (racemic) [Compound I-364], on MDR1 (MDR1-MDCKII cells), the “MDCKII-MDR1: Efflux Ratio” value amounted to 2.02 and the “MDCKII-MDR1: Papp A-B” value was 16 10^−6 cm/s.

Take `Cc1ccc(-c2noc(C3CCC(F)C3)n2)cc1NC(=O)c1cnc2ccccn12` (racemic) [Compound I-319]: at MDR1 (MDR1-MDCKII cells), the “MDCKII-MDR1: Efflux Ratio” value is reported as 0.76 and the “MDCKII-MDR1: Papp A-B” value is recorded as 10 10^−6 cm/s.

`Cc1ccc(-c2noc([C@H]3C[C@@H]3F)n2)cc1NC(=O)c1cnc2cc(N3CCC3)ccn12` [Compound I-295]: in data set [1] (time point 2 h), the Brain concentration is 377 ng/g, the Kp brain/plasma came to 0.18, the Kp testes/plasma was 0.49 and the Plasma concentration was found to be 2080 ng/mL. Moreover, in data set [1] (time point 2 h), the Testes concentration came to 1020 ng/g.

Consider `Cc1ccc(-c2noc(C3CC(F)C3)n2)cc1NC(=O)c1cnc2ccccn12` (stereo not drawn) [Compound I-381], for which, at MDR1 (MDR1-MDCKII cells), the “MDCKII-MDR1: Efflux Ratio” value came to 0.55 and the “MDCKII-MDR1: Papp A-B” value is reported as 5.95 10^−6 cm/s.

In data set [1] (time point 2 h), `Cc1ccc(-c2noc(C3CCS(=O)(=O)N3)n2)cc1NC(=O)c1cnc2ccccn12` (racemic) [Compound I-330] had a Brain concentration of 0 ng/g, a Kp testes/plasma of 0.86, a Plasma concentration of 117 ng/mL and a Testes concentration of 100 ng/g.

In data set [1] (time point 2 h), `Cc1ccc(-c2noc(CC(=O)O)n2)cc1NC(=O)c1cnc2ccccn12` [Compound I-335] displayed a Brain concentration of 0 ng/g, a Plasma concentration of 16.7 ng/mL and a Testes concentration of 0 ng/g.

In data set [1] (time point 2 h), `Cc1cc(C)cc(Nc2ccc3ncc(C(=O)Nc4cc(-c5noc([C@H]6C[C@@H]6F)n5)ccc4C)n3c2)c1` [Compound I-299] showed a Brain concentration of 101 ng/g, a Kp brain/plasma of 0.47, a Kp testes/plasma of 0.92 and a Plasma concentration of 216 ng/mL. This compound also showed a Testes concentration in data set [1] (time point 2 h) of 198 ng/g.

In data set [1] (time point 2 h), `Cc1ccc(-c2noc(C(C)NS(C)(=O)=O)n2)cc1NC(=O)c1cnc2ccccn12` (single isomer, unassigned) [Compound I-238] showed a Brain concentration of 0 ng/g, a Kp testes/plasma of 0.17, a Plasma concentration of 791 ng/mL and a Testes concentration of 131 ng/g.

Regarding `COc1ccn2c(C(=O)Nc3cc(-c4noc(CC(O)C(F)F)n4)ccc3C)cnc2c1` (single isomer, unassigned) [Compound I-76], in data set [1] (time point 3 h), the Brain concentration is given as 55.9 ng/g, the Kp brain/plasma was 0.09, the Kp testes/plasma is recorded as 0.41 and the Plasma concentration was 598 ng/mL. The Testes concentration in data set [1] (time point 3 h) worked out at 246 ng/g.

In data set [1] (time point 2 h), `Cc1nc(-c2ccc(C)c(NC(=O)c3cnc4ccccn34)c2)no1` [Compound I-360] yielded a Brain concentration of 3420 ng/g, a Kp brain/plasma of 0.94, a Kp testes/plasma of 0.81 and a Plasma concentration of 3650 ng/mL. This compound also showed a Testes concentration in data set [1] (time point 2 h) of 2960 ng/g.

Consider `O=C(Nc1cc(-c2noc([C@H]3C[C@@H]3F)n2)ccc1Br)c1cnc2ccccn12` [Compound I-340], for which, in data set [1] (time point 2 h), the Brain concentration is 3660 ng/g, the Kp brain/plasma stood at 1.64, the Kp testes/plasma stood at 1.35 and the Plasma concentration amounted to 2230 ng/mL. The compound also returned a Testes concentration in data set [1] (time point 2 h) of 3010 ng/g.
